Reference: patent publication US20220194938A1, “NOVEL COMPOUNDS AND PHARMACEUTICAL COMPOSITIONS THEREOF FOR THE TREATMENT OF INFLAMMATORY DISORDERS” (GALAPAGOS NV, priority 2019, published 2022)
Like-named read-outs stand apart in the source and are kept apart here.

Test system: CL097 triggered IFNα and TNFα release in human whole blood
Test: Ex vivo human IFNα and TNFα release inhibition (whole blood assay, CL097 triggered)
Format: cell-based
Conditions: CL097 2 μg/mL, 3 h 30 min
Excerpt: 4.10.1. Ex Vivo Human IFNα and TNFα Release Inhibition (Whole Blood Assay)
The aim of the assay is to evaluate the activity of compounds of the invention on the activated TLR/IRAK-4 pathway in an ex vivo human whole blood setting. Toll-like receptors (TLRs) are pattern recognition receptors that recognize a wide variety of microbial molecules, called pathogen-associated molecular patterns (PAMPs). Human TLR7 and TLR8 recognize imidazoquinoline compounds (e.g., CL097—CAS n #1026249-18-2) and single stranded RNAs as their natural ligands. Activation of TLRs leads to the production of several cytokines (e.g., IFNα, TNFα, IL-8, IL-6) by the TLR agonist-treated cells, whereas IRAK4 leads to the production of IFNα. Cytokine release is used as readout in this assay and represents a measure for the level of inhibition of the TLR/IRAK-4 pathway by the tested compound. It should be noted that in the context of the complete organism, other sources for these cytokines exist that are not dependent on the TLR/IRAK-4 pathway, such as e.g., macrophages (upon activation of the Fcγ receptor (Yan et al. 2012)) or T cells (upon activation of the T cell receptor (Brehm, Daniels, and Welsh 2005)).
4.10.1.1. Experimental Design
Blood was collected from healthy volunteers into lithium heparin tubes by venipuncture, then gently inverted several times to prevent clotting and incubated for at least 15 min at 37° C. on a rocking mixer shaker. Then, 100 μL of blood was dispensed into polypropylene 96-well microplate and pre-incubated in duplicate with 0.3% DMSO or test compound at different concentrations (from 30 to 0.01 μM, 3-fold dilutions to get 0.3% DMSO at the final) for 15 min at 37° C. After this pre-incubation, blood was triggered with CL097 (2 μg/mL from 1 mg/mL solution in water; InvivoGen, tlr1-c97) for 3 h 30 min at 37° C. Microtubes were centrifuged at 5000×g for 10 min at 4° C. and approximately 40 μL of plasma were collected into a polystyrene 96-well plate. Plasma could be analyzed freshly, within 30 min after triggering, or frozen at −80° C. Finally, the quantification of TNFα and IFNα were performed in the plasma using AlphaLISA Kit for […] according to the manufacturer's instructions and read on the Ensight (PerkinElmer).
A standard curve was created by plotting on log-log the mean absorbance on the y-axis against the concentration on the x-axis and a 4 PL was made through the points. For each blood sample, the IFNα concentrations of the samples were determined from the fit.
Data were then expressed as a percentage of inhibition (PIN) for each replicate using the formula:
With mean IFNα with CL097=mean IFNα concentration of replicate samples triggered with CL097; IFNαsample1=IFNα concentration of sample 1; mean IFNα with vehicle=mean IFNα concentration of replicate samples treated with vehicle.
For each blood sample, the TNFα concentrations of the samples were determined from the fit. Data were then expressed as a percentage of inhibition (PIN) for each replicate using the formula:
With mean TNFα with CL097=mean TNFα concentration of replicate samples triggered with CL097; TNFαsample1=TNFα concentration of sample 1; mean TNFα with vehicle=mean TNFα concentration of replicate samples treated with vehicle.
Curve fitting for pIC50 determination were generated using mean PIN±sem. Graphs and pIC50 calculations were derived using Prism 5.03 software (GraphPad).

In the case of [2H]C([2H])([2H])NC(=O)c1cc2nc(CCC(C)(C)O)cn2cc1NC(=O)c1cccc(C(F)(F)F)n1 [Compound 1, 2-(3-hydroxy-3-methyl-butyl)-N-(trideuteriomethyl)-6-[[6-(trifluoromethyl)pyridine-2-carbonyl]amino]imidazo[1,2-a]pyridine-7-carboxamide], the IC50 (read-out: IFNα IC50) is reported as 1000 to 5000 nM and the IC50 (read-out: TNFα IC50) is reported as 0.1 to 500 nM.

With CNC(=O)c1cc2nc(CCC(C)(C)O)cn2cc1NC(=O)c1cccc(C(F)(F)F)n1 [Compound 2, 2-(3-hydroxy-3-methyl-butyl)-N-methyl-6-[[6-(trifluoromethyl)pyridine-2-carbonyl]amino]imidazo[1,2-a]pyridine-7-carboxamide] the IC50 (read-out: IFNα IC50) was 500 to 1000 nM and the IC50 (read-out: TNFα IC50) was 0.1 to 500 nM.

For COc1cc2nc(CCC(C)(C)O)cn2cc1NC(=O)c1cccc(C(F)(F)F)n1 [Compound 3, N-[2-(3-hydroxy-3-methyl-butyl)-7-methoxy-imidazo[1,2-a]pyridin-6-yl]-6-(trifluoromethyl)pyridine-2-carboxamide], the IC50 (read-out: IFNα IC50) was 1000 to 5000 nM.

COc1cc2nc(CCC(C)(C)O)cn2cc1NC(=O)c1cccn(C)c1=O [Compound 4, N-[2-(3-hydroxy-3-methyl-butyl)-7-methoxy-imidazo[1,2-a]pyridin-6-yl]-1-methyl-2-oxo-pyridine-3-carboxamide] gave an IC50 (read-out: IFNα IC50) of 0.1 to 500 nM.

With COc1cc2nc(CCC(C)(C)O)cn2cc1NC(=O)c1cccn(C2CC2)c1=O [Compound 5, 1-cyclopropyl-N-[2-(3-hydroxy-3-methyl-butyl)-7-methoxy-imidazo[1,2-a]pyridin-6-yl]-2-oxo-pyridine-3-carboxamide] the IC50 (read-out: IFNα IC50) was 0.1 to 500 nM.

COc1cc2nc(CCC(C)(C)O)cn2cc1NC(=O)c1cccc(C)n1 [Compound 6, N-[2-(3-hydroxy-3-methyl-butyl)-7-methoxy-imidazo[1,2-a]pyridin-6-yl]-6-methyl-pyridine-2-carboxamide] gave an IC50 (read-out: IFNα IC50) of 0.1 to 500 nM.

In the case of COc1cc2nc(CCC(C)(C)O)cn2cc1NC(=O)c1cccc(C(F)F)n1 [Compound 7, 6-(difluoromethyl)-N-[2-(3-hydroxy-3-methyl-butyl)-7-methoxy-imidazo[1,2-a]pyridin-6-yl]pyridine-2-carboxamide], the IC50 (read-out: IFNα IC50) is reported as 0.1 to 500 nM.

For COc1cc2nc(CCC(C)(C)O)cn2cc1NC(=O)c1cccn(C(F)F)c1=O [Compound 12, 1-(difluoromethyl)-N-[2-(3-hydroxy-3-methyl-butyl)-7-methoxy-imidazo[1,2-a]pyridin-6-yl]-2-oxo-pyridine-3-carboxamide], the IC50 (read-out: IFNα IC50) was 500 to 1000 nM.

Work on COc1cc2nc(CCS(C)(=O)=O)cn2cc1NC(=O)c1cccc(C(F)(F)F)n1 [Compound 24, N-[7-methoxy-2-(2-methylsulfonylethyl)imidazo[1,2-a]pyridin-6-yl]-6-(trifluoromethyl)pyridine-2-carboxamide] yielded an IC50 (read-out: IFNα IC50) of 500 to 1000 nM.

Work on COc1cc2nc(CCS(C)(=O)=O)cn2cc1NC(=O)c1cccn(C2CC2)c1=O [Compound 25, 1-cyclopropyl-N-[7-methoxy-2-(2-methylsulfonylethyl)imidazo[1,2-a]pyridin-6-yl]-2-oxo-pyridine-3-carboxamide] yielded an IC50 (read-out: IFNα IC50) of 0.1 to 500 nM.

With CC(C)(O)CCc1cn2cc(NC(=O)c3cccc(C(F)(F)F)n3)c(C(N)=O)cc2n1 [Compound 31, 2-(3-hydroxy-3-methyl-butyl)-6-[[6-(trifluoromethyl)pyridine-2-carbonyl]amino]imidazo[1,2-a]pyridine-7-carboxamide] the IC50 (read-out: IFNα IC50) was 0.1 to 500 nM and the IC50 (read-out: TNFα IC50) was 0.1 to 500 nM.

For COCCc1cn2cc(NC(=O)c3cccc(C(F)(F)F)n3)c(OC)cc2n1 [Compound 35, N-[7-methoxy-2-(2-methoxyethyl)imidazo[1,2-a]pyridin-6-yl]-6-(trifluoromethyl)pyridine-2-carboxamide], the IC50 (read-out: IFNα IC50) was over 5000 nM and the IC50 (read-out: TNFα IC50) was over 5000 nM.

With CCOc1c(NC(=O)c2cccn(C3CC3)c2=O)cn2cc(CCC(C)(C)O)nc2c1F [Compound 37, 1-cyclopropyl-N-[7-ethoxy-8-fluoro-2-(3-hydroxy-3-methyl-butyl)imidazo[1,2-a]pyridin-6-yl]-2-oxo-pyridine-3-carboxamide] the IC50 (read-out: TNFα IC50) was 1000 to 5000 nM.

With CCOc1c(NC(=O)c2cccn(C3CC3)c2=O)cn2cc(CCS(C)(=O)=O)nc2c1F [Compound 39, 1-cyclopropyl-N-[7-ethoxy-8-fluoro-2-(2-methylsulfonylethyl)imidazo[1,2-a]pyridin-6-yl]-2-oxo-pyridine-3-carboxamide] the IC50 (read-out: IFNα IC50) was 500 to 1000 nM and the IC50 (read-out: TNFα IC50) was 500 to 1000 nM.

COc1c(NC(=O)c2cccn(C3CC3)c2=O)cn2cc(CCC(C)(C)O)nc2c1F [Compound 42, 1-cyclopropyl-N-[8-fluoro-2-(3-hydroxy-3-methyl-butyl)-7-methoxy-imidazo[1,2-a]pyridin-6-yl]-2-oxo-pyridine-3-carboxamide] gave an IC50 (read-out: IFNα IC50) of 500 to 1000 nM and an IC50 (read-out: TNFα IC50) of 0.1 to 500 nM.

With CC(C)(O)CCc1cn2cc(NC(=O)c3cccc(C(F)(F)F)n3)c(C(=O)NCC(F)F)cc2n1 [Compound 48, N-(2,2-difluoroethyl)-2-(3-hydroxy-3-methylbutyl)-6-(6-(trifluoromethyl)picolinamido)imidazo[1,2-a]pyridine-7-carboxamide] the IC50 (read-out: IFNα IC50) was 1000 to 5000 nM and the IC50 (read-out: TNFα IC50) was 1000 to 5000 nM.
